Reference: publication PMC10139140, “Synthesis of Novel 2-(Cyclopentylamino)thiazol-4(5H)-one Derivatives with Potential Anticancer, Antioxidant, and 11β-HSD Inhibitory Activities” (International Journal of Molecular Sciences, 2023)

Key:
11β-HSD1 = target: T1, 11β-HSD1 (Homo sapiens, UniProt P28845); experiment: Inhibition of 11β-HSD1 (cortisone to cortisol, human liver microsomes, cortisol ELISA); type: biochemical; conditions: for inhibition at 10 µM: 2.5 h, 37 °C
T1 construct: Human liver microsomes were used as a source of 11β-HSD1 enzyme; tissue XenoTech Lot No. 1410013; host or cells: pooled human liver microsomes, mixed gender
Protocol: The resulting solution with a final volume of 100 µL was incubated for 2.5 h at 37 °C. To stop the reaction, 10 µL of a 100 µM solution of 18β-glycyrrhetinic acid in PBS was added. The level of cortisol obtained in the reaction was measured by commercially available ELISA kit.
As a control, analogous tests without the addition of inhibitors were used. Half the inhibitory concentration (causing 50% reduction of cortisol or cortisone) was read from the chart.

11β-HSD2 = target: T2, 11β-HSD2 (Homo sapiens, UniProt P80365); experiment: Inhibition of 11β-HSD2 (cortisol to cortisone, human microsomes, cortisol ELISA); type: biochemical; conditions: 2.5 h, 37 °C
T2 construct: Human liver microsomes were used as a source of 11β-HSD2 enzyme; tissue XenoTech Lot No. 1710160; host or cells: human kidney microsomes, mixed gender (method text says human liver microsomes)
T2 sequence (P80365 1-405): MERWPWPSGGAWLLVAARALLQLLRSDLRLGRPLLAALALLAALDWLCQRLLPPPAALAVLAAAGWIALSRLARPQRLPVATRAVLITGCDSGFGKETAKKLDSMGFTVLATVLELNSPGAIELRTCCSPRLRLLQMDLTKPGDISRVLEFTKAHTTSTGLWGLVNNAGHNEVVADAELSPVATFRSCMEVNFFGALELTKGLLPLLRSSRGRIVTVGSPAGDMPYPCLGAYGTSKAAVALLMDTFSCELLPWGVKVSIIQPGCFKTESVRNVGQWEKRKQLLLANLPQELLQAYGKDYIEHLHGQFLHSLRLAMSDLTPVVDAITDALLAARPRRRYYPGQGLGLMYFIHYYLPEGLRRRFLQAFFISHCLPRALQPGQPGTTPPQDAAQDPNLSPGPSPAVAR
Protocol: The resulting solution with a final volume of 100 µL was incubated for 2.5 h at 37 °C. […] The level of unreacted cortisol was measured by a commercially available ELISA kit.

BJ cells = experiment: MTS metabolic activity assay, BJ cells; type: cell-based; conditions: Homo sapiens, 72 h, read-out: Cell metabolic activity (MTS), % of untreated control
Protocol: (§1) The BJ (CRL-2522), Caco-2 (HTB-37), PANC-1 (CRL-1469), U-118 MG (HTB-15), SK-MEL-30 (ACC 151), and MDA-MB-231 (HTB-26) cell lines were purchased from ATCC (Manassas, VA, USA) or DSMZ (Braunschweig, GERMANY). Cells were cultured in accordance with manufacturers' recommendations in a DMEM, MEM, or RPMI-1640 (Sigma, Saint Louis, MO, USA; Gibco, Waltham, MA, USA), supplemented with 10% FBS, except for Caco-2 (20%) (Thermo Fisher Scientific, Waltham, MA, USA) and 1% antibiotic mix solution (penicillin, streptomycin; Thermo Fisher Scientific, Waltham, MA, USA) in a humidified atmosphere with 5% CO2 at 37 °C. All cell lines were cultured in T75 cell culture flasks or cell culture dishes to reach 80–90% confluency and seeded at a standard density of 5 × 10^3 cells/0.32 cm^2, except for BJ cells at 2 × 10^3 cells/0.32 cm^2.
(§2) The MTS ((MTS: 3-(4,5-dimethylthiazol-2-yl)-5-(3-carboxymethoxyphenyl)-2-(4-sulfophenyl)-2H-tetrazolium)) assay was performed following previously reported method. Briefly, cells were seeded at a standard density into 96-well flat-bottom plates and incubated for 24 h, followed by the treatment. The various concentrations of compounds were prepared and treated for the next 72 h. MTS solution was added for 3h and incubated at standard conditions, protected from light. Finally, the absorbance was read at […] and 620 nm wavelengths using a Synergy H1 microplate reader (BioTek, Santa Clara, CA, USA). The results are presented as %, while untreated control cells were considered 100%.

[1] = tested on: human colon carcinoma (Caco-2); experiment: MTS metabolic activity assay, Caco-2 cells; type: cell-based; conditions: 72 h; for viability at 10 µM / viability at 20 µM / viability at 50 µM / viability at 100 µM / viability at 200 µM / viability at 300 µM / viability at 500 µM: Homo sapiens, read-out: Cell metabolic activity (MTS), % of untreated control; for viability at 10 µM: Caco-2, 10 µM; for viability at 20 µM: Caco-2, 20 µM; for viability at 50 µM: Caco-2, 50 µM; for viability at 100 µM: Caco-2, 100 µM; for viability at 200 µM: Caco-2, 200 µM; for viability at 300 µM: Caco-2, 300 µM; for viability at 500 µM: Caco-2, 500 µM
Protocol: as §1, §2

[2] = tested on: human pancreatic carcinoma (PANC-1); experiment: MTS metabolic activity assay, PANC-1 cells; type: cell-based; conditions: Homo sapiens, 72 h, read-out: Cell metabolic activity (MTS), % of untreated control; for viability at 10 µM: PANC-1, 10 µM; for viability at 20 µM: PANC-1, 20 µM; for viability at 50 µM: PANC-1, 50 µM; for viability at 100 µM: PANC-1, 100 µM; for viability at 200 µM: PANC-1, 200 µM; for viability at 300 µM: PANC-1, 300 µM; for viability at 500 µM: PANC-1, 500 µM
Protocol: as §1, §2

glioma (U-118 MG) = experiment: MTS metabolic activity assay, U-118 MG cells; type: cell-based; conditions: Homo sapiens, U-118-MG, U118-MG, 72 h, read-out: Cell metabolic activity (MTS), % of untreated control
Protocol: as §1, §2

[3] = tested on: skin melanoma (SK-MEL-30); experiment: MTS metabolic activity assay, SK-MEL-30 cells; type: cell-based; conditions: Homo sapiens, 72 h, read-out: Cell metabolic activity (MTS), % of untreated control; for viability at 10 µM: SK-MEL-30, 10 µM; for viability at 20 µM: SK-MEL-30, 20 µM; for viability at 50 µM: SK-MEL-30, 50 µM; for viability at 100 µM: SK-MEL-30, 100 µM; for viability at 200 µM: SK-MEL-30, 200 µM; for viability at 300 µM: SK-MEL-30, 300 µM; for viability at 500 µM: SK-MEL-30, 500 µM
Protocol: as §1, §2

[4] = tested on: human breast carcinoma (MDA-MB-231); experiment: MTS metabolic activity assay, MDA-MB-231 cells; type: cell-based; conditions: Homo sapiens, 72 h, read-out: Cell metabolic activity (MTS), % of untreated control; for viability at 10 µM: MDA-MB-231, 10 µM; for viability at 20 µM: MDA-MB-231, 20 µM; for viability at 50 µM: MDA-MB-231, 50 µM; for viability at 100 µM: MDA-MB-231, 100 µM; for viability at 200 µM: MDA-MB-231, 200 µM; for viability at 300 µM: MDA-MB-231, 300 µM; for viability at 500 µM: MDA-MB-231, 500 µM
Protocol: as §1, §2

T1 sequence (P28845 whole entry): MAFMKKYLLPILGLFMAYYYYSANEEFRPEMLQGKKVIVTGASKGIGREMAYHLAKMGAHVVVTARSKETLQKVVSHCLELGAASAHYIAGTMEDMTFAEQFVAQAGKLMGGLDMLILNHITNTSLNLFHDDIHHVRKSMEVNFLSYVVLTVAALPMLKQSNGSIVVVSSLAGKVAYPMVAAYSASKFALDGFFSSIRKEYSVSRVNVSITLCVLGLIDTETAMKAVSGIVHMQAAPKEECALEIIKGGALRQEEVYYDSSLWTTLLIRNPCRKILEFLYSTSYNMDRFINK

CCC1SC(NC2CCCC2)=NC1=O (stereo not shown) [Compound 3b, 2-(cyclopentylamino)-5-ethylthiazol-4(5H)-one]
IC50 (11β-HSD1): > 10000 nM | inhibition at 10 µM (11β-HSD1): 21.3 ± 3.29% | inhibition at 10 µM (11β-HSD2): 39.7 ± 0.07% | viability at 10 µM (BJ cells): 97.9% | viability at 20 µM (BJ cells): 98.5% | viability at 50 µM (BJ cells): 102% | viability at 100 µM (BJ cells): 108% | viability at 200 µM (BJ cells): 110% | viability at 300 µM (BJ cells): 112% | viability at 500 µM (BJ cells): 111% | viability at 10 µM [1]: 87.9% | viability at 20 µM [1]: 87.3% | viability at 50 µM [1]: 84.4% | viability at 100 µM [1]: 79.8% | viability at 200 µM [1]: 77% | viability at 300 µM [1]: 73.2% | viability at 500 µM [1]: 66.1% | viability at 10 µM [2]: 103% | viability at 20 µM [2]: 102% | viability at 50 µM [2]: 107% | viability at 100 µM [2]: 112% | viability at 200 µM [2]: 113% | viability at 300 µM [2]: 110% | viability at 500 µM [2]: 105% | viability at 10 µM (glioma (U-118 MG)): 110% | viability at 20 µM (glioma (U-118 MG)): 107% | viability at 50 µM (glioma (U-118 MG)): 111% | viability at 100 µM (glioma (U-118 MG)): 113% | viability at 200 µM (glioma (U-118 MG)): 113% | viability at 300 µM (glioma (U-118 MG)): 112% | viability at 500 µM (glioma (U-118 MG)): 107% | viability at 10 µM [3]: 93.7% | viability at 20 µM [3]: 99% | viability at 50 µM [3]: 97.4% | viability at 100 µM [3]: 105% | viability at 200 µM [3]: 101% | viability at 300 µM [3]: 98.4% | viability at 500 µM [3]: 93.8% | viability at 10 µM [4]: 97.5% | viability at 20 µM [4]: 97.8% | viability at 50 µM [4]: 94.5% | viability at 100 µM [4]: 95.3% | viability at 200 µM [4]: 86.5% | viability at 300 µM [4]: 75.3% | viability at 500 µM [4]: 57.4%

O=C1N=C(NC2CCCC2)SC12CCC2 [Compound 3i, 6-(cyclopentylamino)-5-thia-7-azaspiro[3.4]oct-6-en-8-one]
IC50 (11β-HSD1): 1550 ± 100 nM | inhibition at 10 µM (11β-HSD1): 71.2 ± 4.77% | inhibition at 10 µM (11β-HSD2): 46.3 ± 1.22% | viability at 10 µM (BJ cells): 102% | viability at 20 µM (BJ cells): 104% | viability at 50 µM (BJ cells): 105% | viability at 100 µM (BJ cells): 111% | viability at 200 µM (BJ cells): 116% | viability at 300 µM (BJ cells): 121% | viability at 500 µM (BJ cells): 115% | cell viability, decreases to ([1]; Caco-2, higher concentrations, range given for the most effective substances together): 20–65% | viability at 10 µM [1]: 92.2% | viability at 20 µM [1]: 91.2% | viability at 50 µM [1]: 92.9% | viability at 100 µM [1]: 82.5% | viability at 200 µM [1]: 77.5% | viability at 300 µM [1]: 69.8% | viability at 500 µM [1]: 61.5% | viability at 10 µM [2]: 95.4% | viability at 20 µM [2]: 93.3% | viability at 50 µM [2]: 97.3% | viability at 100 µM [2]: 91.4% | viability at 200 µM [2]: 91.2% | viability at 300 µM [2]: 79.7% | viability at 500 µM [2]: 66.6% | viability at 10 µM (glioma (U-118 MG)): 107% | viability at 20 µM (glioma (U-118 MG)): 108% | viability at 50 µM (glioma (U-118 MG)): 111% | viability at 100 µM (glioma (U-118 MG)): 109% | viability at 200 µM (glioma (U-118 MG)): 112% | viability at 300 µM (glioma (U-118 MG)): 109% | viability at 500 µM (glioma (U-118 MG)): 108% | viability at 10 µM [3]: 88.1% | viability at 20 µM [3]: 94% | viability at 50 µM [3]: 97.3% | viability at 100 µM [3]: 99% | viability at 200 µM [3]: 101% | viability at 300 µM [3]: 102% | viability at 500 µM [3]: 103% | viability at 10 µM [4]: 87.2% | viability at 20 µM [4]: 91.2% | viability at 50 µM [4]: 89.6% | viability at 100 µM [4]: 85.1% | viability at 200 µM [4]: 72.5% | viability at 300 µM [4]: 69.3% | viability at 500 µM [4]: 58.7%
